Patent publication US9801901B2, “Alginate oligomers for use in overcoming multidrug resistance in bacteria” (priority 2009, dated 2017)
≈ marks a conversion by molar mass, not a printed value. Read-outs that look alike come from different tables or passages of the source. Marks after values point to notes of the source that are not given here.

Experiments:
[1] = tested on: Acinetobacter baumannii (Egypt, V9); experiment: MIC-assay, Mueller-Hinton broth with G-block alginate, 384-well, OD600
[2] = tested on: Klebsiella pneumoniae KP05 506 from India (V3); experiment: MIC assay, CAMHB with alginate oligomer, no visible growth; format: cell-based; conditions: for MIC: Klebsiella pneumoniae, Table 1, V3 KP05 506, read-out: MIC
[3] = tested on: strains of Klebsiella pneumoniae displaying MDR phenotypes; experiment: MIC-assay, Mueller-Hinton broth with G-block alginate, 384-well, OD600 (Table 10); format: cell-based
Source text: Minimum inhibitory concentration (MICs) of different antibiotics for strains of Klebsiella pneumoniae displaying MDR phenotypes in the presence of varying concentrations of OligoCF-5/20 (0-10%). (MIC values are expressed in μg ml^−1).

[4] = tested on: Acinetobacter baumannii MDR ACB from Libya (V4); experiment: MIC assay, CAMHB with alginate oligomer, no visible growth; format: cell-based; conditions: for MIC: Acinetobacter baumannii, read-out: MIC
Source text: The study described in Example 1 was repeated with the following strains of bacteria and antibiotics as detailed in Tables 4, 5 and 6.
(§1) The study described in Example 1 was repeated with the following strains of Acinetobacter baumannii, antibiotics and M-block alginate oligomer in place of OligoG CF-5/20 as detailed in Table 7. The M-block oligomer is 100% M with a DPn of 15 to 18,

[5] = tested on: V19 non MDR Acinetobacter baumannii; experiment: MIC assay, CAMHB with M-block alginate oligomer, no visible growth; format: cell-based; conditions: Table 7, V19 non MDR Acin. baum
Source text: as §1

[6] = tested on: Burkholderia cepacia (1322, V23); experiment: MIC-assay, Mueller-Hinton broth with G-block alginate, 384-well, OD600
MDR Pseudomonas strains = experiment: MIC assay of Example 1, summary over the MDR Pseudomonas strains; format: cell-based, Pseudomonas aeruginosa
[7] = tested on: V23 1322 Burkholderia cepacia; experiment: MIC assay, CAMHB with alginate oligomer, no visible growth; format: cell-based
[8] = tested on: V10 (Egypt) Acinetobacter lwoffii; experiment: as above; format: cell-based; conditions: Table 5, V10 MDR Acin. lwoff
V22 6056 Acinetobacter = experiment: as above; format: cell-based, Acinetobacter lwoffii; conditions: Table 5, V22 MDR Acin. lwoff
V11 5702 (Wales) E. coli = experiment: as above; format: cell-based; conditions: Table 5, V11 MDR E.coli

C[C@H]1[C@H](NC(=O)/C(=N\OC(C)(C)C(=O)O)c2csc(N)n2)C(=O)N1S(=O)(=O)O [Aztreonam]
MIC ([1]; Table 9, G-block (OligoCF-5/20) 0%): > 16 µg/mL
MIC ([1]; Table 9, G-block (OligoCF-5/20) 2%): > 16 µg/mL
MIC ([1]; Table 9, G-block (OligoCF-5/20) 6%): > 16 µg/mL
MIC ([1]; Table 9, G-block (OligoCF-5/20) 10%): > 16 µg/mL
effectiveness in conjunction with alginate oligomers ([2]; Example 1, KP05 506): more effective
MIC ([2]; OligoCF-5/20 0G): 2050 µg/mL (≈ 4700 µM)
MIC ([2]; OligoCF-5/20 +2% G): 2050 µg/mL (≈ 4700 µM)
MIC ([2]; OligoCF-5/20 +6% G): 512 µg/mL (≈ 1180 µM)
MIC ([2]; OligoCF-5/20 +10% G): 256 µg/mL (≈ 588 µM)
MIC ([3]; Klebsiella pneumoniae (5712, Wales, V12) MDR, G-block (OligoCF-5/20) 0%, read-out: MIC): 4 µg/mL (≈ 9.19 µM)
MIC ([3]; Klebsiella pneumoniae (5712, Wales, V12) MDR, G-block (OligoCF-5/20) 2%, read-out: MIC): 4 µg/mL (≈ 9.19 µM)
MIC ([3]; Klebsiella pneumoniae (5712, Wales, V12) MDR, G-block (OligoCF-5/20) 6%, read-out: MIC): 4 µg/mL (≈ 9.19 µM)
MIC ([3]; Klebsiella pneumoniae (5712, Wales, V12) MDR, G-block (OligoCF-5/20) 10%, read-out: MIC): 4 µg/mL (≈ 9.19 µM)
MIC ([3]; Klebsiella pneumoniae (IR25, India, V6) MDR, G-block (OligoCF-5/20) 2%, read-out: MIC): 256 µg/mL (≈ 588 µM)
MIC ([3]; Klebsiella pneumoniae (IR25, India, V6) MDR, G-block (OligoCF-5/20) 6%): 128 µg/mL (≈ 294 µM)
MIC ([3]; Klebsiella pneumoniae (IR25, India, V6) MDR, G-block (OligoCF-5/20) 10%, read-out: MIC): 64 µg/mL (≈ 147 µM)
MIC ([3]; Klebsiella pneumoniae (K3, India, V8) MDR, G-block (OligoCF-5/20) 2%, read-out: MIC): 256 µg/mL (≈ 588 µM)
MIC ([3]; Klebsiella pneumoniae (K3, India, V8) MDR, G-block (OligoCF-5/20) 6%): 128 µg/mL (≈ 294 µM)
MIC ([3]; Klebsiella pneumoniae (K3, India, V8) MDR, G-block (OligoCF-5/20) 10%): 128 µg/mL (≈ 294 µM)
MIC ([4]; Table 1, V4 ACB (Libya), OligoCF-5/20 0G): 1020 µg/mL (≈ 2350 µM)
MIC ([4]; Table 1, V4 ACB (Libya), OligoCF-5/20 +2% G): 512 µg/mL (≈ 1180 µM)
MIC ([4]; Table 1, V4 ACB (Libya), OligoCF-5/20 +6% G): 256 µg/mL (≈ 588 µM)
MIC ([4]; Table 1, V4 ACB (Libya), OligoCF-5/20 +10% G): 128 µg/mL (≈ 294 µM)
MIC ([4]; Table 7, V4 MDR Acin baum (Libya), M-block oligomer 0M): 2050 µg/mL (≈ 4700 µM)
MIC ([4]; Table 7, V4 MDR Acin baum (Libya), M-block oligomer +2% M): 512 µg/mL (≈ 1180 µM)
MIC ([4]; Table 7, V4 MDR Acin baum (Libya), M-block oligomer +6% M): 256 µg/mL (≈ 588 µM)
MIC ([4]; Table 7, V4 MDR Acin baum (Libya), M-block oligomer +10% M): 64 µg/mL (≈ 147 µM)
effect in combination with alginate oligomers ([4]; Example 1, Acinetobacter baumannii isolate): more positive effect
MIC ([5]; M-block oligomer 0M): 64 µg/mL (≈ 147 µM)
MIC ([5]; M-block oligomer +2% M): 32 µg/mL (≈ 73.5 µM)
MIC ([5]; M-block oligomer +6% M): 8 µg/mL (≈ 18.4 µM)
MIC ([5]; M-block oligomer +10% M): 8 µg/mL (≈ 18.4 µM)
MIC ([6]; Table 8, G-block (OligoCF-5/20) 0%): > 16 µg/mL
MIC ([6]; Table 8, G-block (OligoCF-5/20) 2%): > 16 µg/mL
MIC ([6]; Table 8, G-block (OligoCF-5/20) 6%): > 16 µg/mL
MIC ([6]; Table 8, G-block (OligoCF-5/20) 10%): > 16 µg/mL
effectiveness when used in combination with the alginate oligomers (MDR Pseudomonas strains): more effective
MIC ([7]; Burkholderia cepacia, Table 5, V23 MDR Burk cep, OligoCF-5/20 0G, read-out: MIC): > 512 µg/mL
MIC ([7]; Burkholderia cepacia, Table 6, V23, Experiment 1 (18-03-10), OligoCF-5/20 0G, read-out: MIC): > 4100 µg/mL
MIC ([7]; Burkholderia cepacia, Table 6, V23, Experiment 2 (18-03-10), OligoCF-5/20 0G, read-out: MIC): > 4100 µg/mL
MIC ([7]; Burkholderia cepacia, Table 6, V23, Experiment 3 (19-03-10), OligoCF-5/20 0G, read-out: MIC): > 4100 µg/mL
MIC ([7]; Table 5, V23 MDR Burk cep, OligoCF-5/20 +2% G): >512 µg/mL
MIC ([7]; Table 5, V23 MDR Burk cep, OligoCF-5/20 +6% G): 512^† μg/ml
MIC ([7]; Table 5, V23 MDR Burk cep, OligoCF-5/20 +10% G): 128^† μg/ml
MIC ([7]; Table 6, V23, Experiment 1 (18-03-10), OligoCF-5/20 +2% G): >4096 µg/mL
MIC ([7]; Table 6, V23, Experiment 1 (18-03-10), OligoCF-5/20 +6% G): 1024^† μg/ml
MIC ([7]; Table 6, V23, Experiment 1 (18-03-10), OligoCF-5/20 +10% G): 256^† μg/ml
MIC ([7]; Table 6, V23, Experiment 2 (18-03-10), OligoCF-5/20 +2% G): >4096 µg/mL
MIC ([7]; Table 6, V23, Experiment 2 (18-03-10), OligoCF-5/20 +6% G): 1024^† μg/ml
MIC ([7]; Table 6, V23, Experiment 2 (18-03-10), OligoCF-5/20 +10% G): 512^† μg/ml
MIC ([7]; Table 6, V23, Experiment 3 (19-03-10), OligoCF-5/20 +2% G): >4096 µg/mL
MIC ([7]; Table 6, V23, Experiment 3 (19-03-10), OligoCF-5/20 +6% G): 1024^† μg/ml
MIC ([7]; Table 6, V23, Experiment 3 (19-03-10), OligoCF-5/20 +10% G): 128^† μg/ml
MIC ([8]; Acinetobacter lwoffii, OligoCF-5/20 0G, read-out: MIC): 32 µg/mL (≈ 73.5 µM)
MIC ([8]; OligoCF-5/20 +2% G): 16^† μg/ml
MIC ([8]; OligoCF-5/20 +6% G): 4^† μg/ml
MIC ([8]; OligoCF-5/20 +10% G): 1^† μg/ml
MIC (V22 6056 Acinetobacter; Acinetobacter, OligoCF-5/20 0G, read-out: MIC): 256 µg/mL (≈ 588 µM)
MIC (V22 6056 Acinetobacter; OligoCF-5/20 +2% G): 128^† μg/ml
MIC (V22 6056 Acinetobacter; OligoCF-5/20 +6% G): 64^† μg/ml
MIC (V22 6056 Acinetobacter; OligoCF-5/20 +10% G): 32^† μg/ml
MIC (V11 5702 (Wales) E. coli; Escherichia coli, OligoCF-5/20 0G, read-out: MIC): 256 µg/mL (≈ 588 µM)
MIC (V11 5702 (Wales) E. coli; OligoCF-5/20 +2% G): 256 µg/mL (≈ 588 µM)
MIC (V11 5702 (Wales) E. coli; OligoCF-5/20 +6% G): 256 µg/mL (≈ 588 µM)
MIC (V11 5702 (Wales) E. coli; OligoCF-5/20 +10% G): 256 µg/mL (≈ 588 µM)
